# Patent US20070190187A1, “FORMULATION FOR ENHANCED DELIVERY OF PHENETHYLAMINE” (priority 2006, published 2007)
# Experiment: co-administration of phenylethylamine with moiety/moieties that inhibit the enzyme MAO-B
# Assay type: in vivo
# Settings: co-administered with a moiety/moieties that inhibited the effects of the enzyme MAO-B
# Source text: Therefore, the combination of phenylethylamine or derivative thereof and the MAO-B enzyme inhibitor may be formulated as a dietary supplement, other foodstuff, a pharmaceutical, a topical or transdermal compound or a vaccine. The Dietary Supplement Health and Education Act of 1994, commonly referred to as DSHEA, defines “dietary supplement” as any product (except tobacco) that contains at least one of the following: (1) a vitamin, (2) a mineral, (3) an herb or botanical, (4) an amino acid, (5) a dietary substance “for use to supplement the diet by increasing total dietary intake,” or (6) any concentrate, metabolite, constituent, extract, or combination of any of the aforementioned ingredients. Examples of dietary supplements include, but are not limited to nutritional products; sports performance products, including ergogenic sports performing products; weight loss products; and meal replacement products. Dietary supplements may exist in various forms, including, but not limited to tablets, capsules, caplets, powders, drinks including shakes, and solid food items including snack bars, etc. For purposes of the present invention, a foodstuff is defined as a substance that can be used or prepared for use as food or extracted from food.
smiles,measurement,value
"NCCc1ccccc1 [phenylethylamine, Phenethylamine]","amount of phenethylamine absorbed into the bloodstream, cells and tissue",increased amount
same,amount of phenethylamine allowed to reach the brain and period of time per dose administered before it is metabolized,"a greater amount of phenethylamine or a derivative thereof, is allowed to reach the brain for a greater period of time"
